Results from patent publication US11013677B2, “Methods and compositions to reduce staining for antibacterial oral care compositions” (Colgate-Palmolive Company, priority 2019, dated 2021).

Tests used:
[1] = Bovine enamel staining model, CHX oral care compositions with metal chelator, ΔW*; details: for effect on CHX-staining (ΔW*): added to an oral care composition containing CHX
Excerpt: (§1) A bovine enamel model was used to mimic CHX staining. The bovine teeth samples were kept hydrated until use. Baseline (L*, a*, and b*) measurements were taken of the samples before treatment using a spectroshade. The samples were then placed in a solution representing each of the treatments of Table 2 and then in artificial saliva. This cycle of soaking in the treatment and in artificial saliva was then repeated 14 times for each sample, with spectroshade measurements taken every two cycles immediately after soaking in the artificial saliva step (the samples were dabbed dry before measurements). Control samples soaked in FeCl3 alone and FeCl3+CHX solutions were also done.
(§2) The L*, a*, and b* values were used to calculate the change in whiteness (ΔW*) for each tooth after treatment as compared to the baseline values using Formulas (1) and (2) below. W*=((a*−0)^2+(b*−0)^2+(L*−100)^2)^1/2 Formula (1) ΔW*=W*treated−W*baseline Formula (2)
Table 4 illustrates the effects of a metal chelator on CHX-caused staining when incorporating into an oral care composition including CHX according to implementations of the present disclosure. In particular, Table 4 illustrates the ΔW* for 5 oral care compositions containing CHX and measured similarly as described above. The more positive the value of ΔW*, the darker the tooth color is.
Oral Care Composition #1 is a commercially available antimicrobial oral rinse with 0.12% chlorhexidine gluconate. Oral Care Compositions #2-#5 are the same as Oral Care Composition #1 except they include the specified amounts (by weight) of a metal chelator.

[2] = Bovine enamel model of CHX staining, FeCl3/CHX/chelator solutions, change in whiteness ΔW*; details: for effect on teeth staining caused by CHX: when exposed to an iron solution (FeCl3 + CHX)
Excerpt: as §1, §2
The more positive the value of ΔW*, the darker the tooth color is.

N[C@@H](CCC(=O)O)C(=O)O [Glutamic acid]
relative performance in reducing CHX-staining ([1]; 0.2 weight % added to commercial rinse (0.12% chlorhexidine gluconate)): best performers
effect on CHX-staining (ΔW*) [1]: significantly reduced the amount of CHX-staining

[Cl][Fe]([Cl])[Cl] [FeCl3 alone, FeCl3]
ΔW* (change in whiteness) ([2]; Cycle 0 (baseline), more positive = darker tooth): 0
ΔW* (change in whiteness) ([2]; Cycle 4 of treatment/artificial saliva soaking): 1.31
ΔW* (change in whiteness) ([2]; Cycle 6 of treatment/artificial saliva soaking): 0.83
ΔW* (change in whiteness) ([2]; Cycle 8 of treatment/artificial saliva soaking): 0.90
ΔW* (change in whiteness) ([2]; Cycle 10 of treatment/artificial saliva soaking): 0.64
ΔW* (change in whiteness) ([2]; Cycle 14 of treatment/artificial saliva soaking): 0.78

O=P(O)(O)CN(CP(=O)(O)O)CP(=O)(O)O [ATMP, aminotris(methylenephosphonic acid)]
staining reduction, comparison of chelators ([2]; ATMP versus IDA, every cycle): performed better at every cycle compared to IDA
effect on teeth staining caused by CHX [2]: decreased the amount of teeth staining caused by CHX

O=C(O)CC(NC(CC(=O)O)C(=O)O)C(=O)O (stereo not shown) [Imminodisuccinic acid]
effect on teeth staining caused by CHX [2]: decreased the amount of teeth staining caused by CHX

N[C@@H](CC(=O)O)C(=O)O [Aspartic acid]
relative performance in reducing CHX-staining ([1]; 1 weight % added to commercial rinse (0.12% chlorhexidine gluconate)): best performers
effect on CHX-staining (ΔW*) [1]: significantly reduced the amount of CHX-staining
